Laboratory results: PubChem BioAssay (NCI)
Where “and” joins values, the source holds several entries; their conditions need not be identical. Equal entries are not always repeated.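 Protocol summary: plate cells (96-well), add compound at 5 concentrations, incubate 48 h, interpolate endpoints linearly. GI50 is the concentration that inhibits growth by half. Definition used: TGI = concentration required for complete inhibition of growth.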

Columns and labels:
Assay in all cases: DTP human tumour cell line panel, 48 h
[1] = tested on: BT-549 breast
[2] = tested on: SF-295 CNS
[3] = tested on: TK-10 renal
[4] = tested on: HL-60(TB) leukemia
[5] = tested on: T-47D breast
[6] = tested on: CAKI-1 renal
[7] = tested on: COLO 205 colon
[8] = tested on: MDA-MB-231 breast
[9] = tested on: M14 melanoma
[10] = tested on: A498 renal

Row | SMILES | GI50 [1] | TGI [1] | GI50 [2] | TGI [2] | GI50 [3] | TGI [3] | GI50 [4] [µM] | TGI [4] [µM] | GI50 [5] | TGI [5] | GI50 [6] | TGI [6] [µM] | GI50 [7] [µM] | TGI [7] | GI50 [8] | TGI [8] | GI50 [9] | TGI [9] | GI50 [10] | TGI [10]
1 | CN1C(=O)N(C)C2C1NN=c1s/c(=C\c3ccc(C(F)(F)F)cc3)c(=O)n12 (stereo unspecified) | 3.66 µM | > 100 µM | 0.581 µM | 14.6 µM | 4.06 µM | 75.9 µM | 0.413 | 18.6 | 1.72 µM | > 100 µM | 3.39 µM | > 100 | 0.776 | 4.72 µM | 2.29 µM | 14 µM | 1.36 µM | > 100 µM | 2 µM | 34.6 µM
2 | CC(=O)OC12C=C(C)C(C(C)C1)C1C(=O)N(CCN3CCOCC3)C(=O)C12 (stereo unspecified) | > 100 µM | > 100 µM | > 100 µM | > 100 µM | > 100 µM | > 100 µM | > 100 | > 100 | > 100 µM | > 100 µM | > 100 µM | > 100 | > 100 | > 100 µM | > 100 µM | > 100 µM | > 100 µM | > 100 µM | > 100 µM | > 100 µM
3 | O=C1c2ccccc2-c2cc([N+](=O)[O-])c([N+](=O)[O-])cc21 | – | 3.79 µM | – | 3.08 µM | – | 2.81 µM | – | 3.97 | – | 2.69 µM | – | 6.17 | – | 4.71 µM | – | 3.33 µM | – | 3.43 µM | – | 33.1 µM
4 | COc1cc2c(c(OC)c1OC)-c1ccc(SC)c(=O)cc1C(NC(=O)c1ccccc1)CC2 (stereo unspecified) | – | > 31.6 µM | – | < 0.0133 µM | – | 64.4 µM | – | < 0.0127 | – | > 100 µM | – | 48.5 | – | < 0.01 µM | – | 1.77 µM | – | 30.3 µM | – | 0.435 µM
5 | COc1ccc2c(c1)N(CCO)C1=C(C(=O)OC1)C2c1cccc(F)c1 (stereo unspecified) | 0.761 µM | > 14.4 µM | 0.196 µM | > 50 µM | 10.3 µM | > 50 µM | 0.161 | 0.781 | 1.95 µM | > 50 µM | 0.393 µM | > 50 | 0.526 | 3.25 µM | 1.1 µM | > 19.3 µM | 0.285 µM | > 50 µM | 0.157 µM | 2.12 µM
6 | Cc1ccc(/C=N\NC(=O)c2[nH]c3ccc(F)cc3c2-c2ccccc2)cc1 | 0.034 µM | 7.29 µM | 0.0266 µM | 1.2 µM | 0.0412 µM | > 93.3 µM | 0.0291 | 0.121 | 1.1 µM | > 100 µM | 0.0344 µM | 12.5 | 0.0186 | 0.0343 µM | 0.0283 µM | 0.129 µM | 0.0275 µM | – | 0.0387 µM | 24.5 µM
7 | C=CC(=O)Nc1cccc(Oc2nc(Nc3ccc(N4CCN(C)CC4)cc3)nc3ccsc23)c1 | 2.8 µM and 3.62 µM | > 10 µM and 14.6 µM | 7.68 µM | > 10 µM and 21.3 µM | 0.398 µM and 0.6 µM | 2.56 µM and 4.04 µM | 1.43 | 4.09 | 9.72 µM and 5.29 µM | > 10 µM and 27 µM | 1.99 µM | > 10 | 2.19 | 5.27 µM | 2.25 µM and 2.24 µM | 6.44 µM and 5.78 µM | 1.87 µM and 2.01 µM | 3.75 µM and 3.8 µM | 3.51 µM and 0.862 µM | > 10 µM and 9.65 µM
8 | O=S(=O)(c1ccc(Cl)cc1)C(Cl)(Cl)Cl | 1.4 µM | 7.48 µM | 5.3 µM | 23 µM | 9.56 µM | > 75.1 µM | 1.8 | 7.7 | 1.39 µM | > 33.1 µM | 0.251 µM | 0.879 | 3.38 | > 53.4 µM | 3.85 µM | 23 µM | 1.63 µM | 4.32 µM | 1.15 µM | 13 µM
9 | O=C(O)CN1CCN(CC(=O)O)CC(=O)[O][Hg][O]C(=O)C1 | 19.5 µM | 34.8 µM | > 100 µM | > 100 µM | 16 µM | 29.5 µM | 13.7 | 34.7 | 17 µM | 43.2 µM | 21.5 µM | 36.4 | 17.8 | 32.5 µM | 19.6 µM | 35.3 µM | 16.4 µM | 31 µM | > 100 µM | > 100 µM
10 | CN=c1ccc2nc3ccc(N)cc3sc-2c1 | 11.5 µM | 44.4 µM | 0.962 µM | 3.79 µM | 6.96 µM | 32.6 µM | 0.354 | 1.67 | 1.69 µM | 13.2 µM | 2.36 µM | 12.4 | 2.57 | 12.2 µM | 0.7 µM | 14.3 µM | 2.04 µM | 10.8 µM | 79.5 µM | > 100 µM
11 | NC(=O)c1csc(C2OC(CO)C(O)C2O)n1 (stereo unspecified) | > 60.7 µM | > 10000 µM | > 43.9 µM and 13.6 µM | > 8180 µM | > 74.5 µM | > 10000 µM | 36.5 | 3330 | – | > 5620 µM | 65.8 µM and > 50.1 µM | 1220 | 4.76 | > 31.6 µM and 6210 µM | > 73.8 µM | > 6480 µM | 10.2 µM | 5650 µM | – | > 9690 µM
12 | CN(C)CCCn1c(=O)c2ccccc2c2ccccc21 | 29.5 µM | 73.9 µM | 7.69 µM | 32.8 µM | 20.3 µM | > 100 µM | 21.8 | 69.5 | 25.2 µM | > 100 µM | 6.23 µM | 34.9 | 5.58 | 20.6 µM | 22.3 µM | 62.7 µM | 14.4 µM | 29.6 µM | 15.7 µM | 30.6 µM
13 | O=c1[nH]c(=O)n(C2CC(O)C(COP(=O)(OCc3ccc([N+](=O)[O-])o3)N(CCCCCl)CC(O)CO)O2)cc1F (stereo unspecified) | 0.663 µM | > 100 µM | 0.295 µM | > 25.1 µM | 0.326 µM | > 87.7 µM | 0.0262 | > 100 | > 21.4 µM | > 100 µM | 0.191 µM | 0.589 | > 22.5 | > 100 µM | > 100 µM | > 100 µM | 0.365 µM | 2.23 µM | 0.138 µM | 39.1 µM
14 | O=C1OC(=O)C(=C\c2ccc3c(c2)OCO3)/C1=C/c1ccc2c(c1)OCO2 | – | > 100 µM | – | > 100 µM | – | > 100 µM | – | > 88.1 | – | > 100 µM | – | > 100 | – | > 100 µM | – | > 100 µM | – | > 100 µM | – | > 100 µM
15 | C[C@@H]1CN(Cc2ccc(F)cc2)[C@@H](C)CN1C(=O)c1cc2c(C(=O)C(=O)N(C)C)cn(C)c2cc1Cl | 15.2 µM | 41.8 µM | 14.9 µM | 36.7 µM | 30.3 µM | > 89.7 µM | 23.5 | 63.2 | 5.97 µM | 65.6 µM | 16.1 µM | 67.4 | 7.66 | 25.4 µM | 14.9 µM | 32.7 µM | 13.4 µM | 36.6 µM | 9.9 µM | 43.8 µM
16 | O=C1OCC2=C1C(c1ccccc1)c1cc3c(cc1N2)OCO3 (stereo unspecified) | 0.0441 µM | 4.97 µM | 0.0169 µM | – | 11.4 µM | > 100 µM | 0.0214 | 0.0573 | 5.14 µM | > 100 µM | 0.439 µM | > 62.9 | 0.0261 | 0.0703 µM | 0.046 µM | > 74.7 µM | 0.0276 µM | > 100 µM | 0.0159 µM | 0.498 µM
